Data reported in US9572760B2, “Uses of compounds and mixtures from Antrodia cinnamomea mycelia” (Simpson Biotech Co., Ltd., priority 2013, dated 2017).

Tests used:
[1] = test system: CuZnSOD, MnSOD, Catalase, Glutathione peroxidase, NADPH oxidase; test: Real-time RT-PCR of oxidative stress genes (anti-oxidant enzymes, NADPH oxidase) in liver of cirrhotic animals; assay type: in vivo, Wistar rats; conditions: compound B 7 mg/kg, compound C 14 mg/kg, ACM 320 mg/kg
Experimental: Sample tissues of rat livers were measured about 0.5×0.5 cm in area. Each of tissue was homogenized in 1 mL of TRIzol buffer (Invitrogen, Carlsbad, Calif., USA) with a motorized pestle, and then mixed with 0.5 mL chloroform/isoamyl alcohol (24:1), and was centrifuged at 12,000×g for 10 min at 4° C. The supernatant was transferred to a fresh tube, and isopropanol was added, mix well and stored at −80° C. overnight. The reaction mixture was centrifuged at 12,000×g for 30 min at 4° C. to produce a rude RNA pallet, the pellet was washed with 70% ethanol and air-dried. The concentrations of total RNA were measured by absorbance at 260 nm using a NanoDrop ND-1000 (NanoDrop, USA). Reverse transcription reaction was performed using a commercially available set of High Capacity RNA-to-cDNA Kit (Applied Biosystems, USA). cDNA was prepared from 2 μg of total RNA per 20 μl reaction, according to the manufacturer's instructions—37° C. for 60 minutes, 95° C. for 5 minutes, and hold at 4° C. The resulting cDNA was to a final concentration of 100 ng/μl and constituted a matrix in further experiments. Amplification and detection the gene expression by real-time PCR were performed using StepOne plus Real-time PCR System (Applied Biosystems, USA). Samples were assayed in a 10 μl reaction mixture containing 2 μl of template DNA, 5 μl of 2× TaqMan PCR Master Mix (Applied Biosystems, Life Technologies, Foster City, Calif., USA), 0.5 μl of 20× assay mix containing probe, forward and reverse primer (Applied Biosystems, Life Technologies, Foster City, Calif., USA), whereby qPCR targets with the following information were used: (a) Rat α-SMA, Assay ID Rn01759928_g1, (b) Rat TIMP, Assay ID Rn00587558_m1, (c) Rat TGF-β1, Assay ID Rn00572010_m1, (d) Rat Collagen I, Assay ID Rn 01463838_m1, (e) Rat CuZnSOD, Assay ID Rn00566938_m1, (f) Rat MnSOD, Assay ID Rn00690587_g1, (g) Rat Catalase, Assay ID Rn00560930_m1, (h) Rat Glutathione peroxidase, Assay ID Rn00577994_g1, (i) Rat NADPH oxidase, Assay ID Rn00585380_m1 and (j) Rat GAPDH, Assay ID Rn1462662_g1. To control variation in mRNA concentration, all results were normalized to the housekeeping gene, GAPDH. Relative quantitation was performed using the comparative ΔΔCt method according to the manufacture's instructions. The cycling conditions used were as follows: 50° C. for 2 min, 95° C. for 10 min followed by 40 cycles of 95° C. for 15 s and 60° C. for 1 min each.

[2] = test system: Dermal fibroblast, CG1639 cells; test: Profibrogenic gene expression in dermal fibroblast cell line (qRT-PCR); assay type: cell-based; conditions: two concentrations, 72 hrs
Text: The dermal fibroblast cell line CG1639 was obtained from the BCRC (Bioresource Collection and Research Center) and cultured in Dulbecco's modified Eagle media (DMEM, Gibco by Invitrogen) with 1% antibiotic antimycotic (Gibco by Invitrogen) and 15% fetal bovine serum (Gibco by Invitrogen). The fetal rat skin keratinocyte, FRSK cell line was obtained from the Japan HSRRB (Health Science Research Resources Bank) and cultured in Eagle's minimal essential media (MEM, Gibco by Invitrogen) supplemented with 10% fetal bovine serum (FBS) (Gibco by Invitrogen) and 1% antibiotic antimycotic (Gibco by Invitrogen). B16F10 cells, a murine melanoma cell line, were purchased from American Type Culture Collection (ATCC, Rockville, Md., USA) and was cultured in Eagle's Minimum Essential Medium (MEM; Sigma, St. Louis, Mo.) supplemented with 10% fetal bovine serum (FBS; HyClone Lab. Inc., Logan, Utah), 0.02% antibiotic-antimycotic liquid (penicillin, 10 000 U mL^−1; streptomycin, 10 000 μg mL^−1 and amphotericin B, 25 μg mL^−1; Invitrogen, Carlsbad, Calif.).
Reverse transcription reaction was performed using a commercially available set of High Capacity RNA-to-cDNA Kit (Applied Biosystems, USA). cDNA was prepared from 2 μg of total RNA per 20 μl reaction, according to the manufacturer's instructions—37° C. for 60 minutes, 95° C. for 5 minutes, and hold at 4° C. The resulting cDNA was to a final concentration of 100 ng/μl and constituted a matrix in further experiments.
Amplification and detection the gene expression by real-time PCR were performed using StepOne plus Real-time PCR System (Applied Biosystems, USA). Samples were assayed in a 10 μl reaction mixture containing 2 μl of template DNA, 5 μl of 2× TaqMan PCR Master Mix (Applied Biosystems, Life Technologies, Foster City, Calif., USA), 0.5 μl of 20× assay mix containing probe, forward and reverse primer (Applied Biosystems, Life Technologies, Foster City, Calif., USA), whereby qPCR targets with the following information were used: (a) α-SMA, Assay ID Rn01759928_g1, (b) TIMP-1, Assay ID Rn00587558_m1, (c) TGF-β1, Assay ID Rn00572010_m1, (d) Collagen I, Assay ID Rn 01463838_m1, (e) GAPDH, Assay ID Rn1462662_g1. To control variation in mRNA concentration, all results were normalized to the housekeeping gene, GAPDH. Relative quantitation was performed using the comparative ΔΔCt method according to the manufacturer's instructions. The cycling conditions used were as follows: 50° C. for 2 min, 95° C. for 10 min followed by 40 cycles of 95° C. for 15 s and 60° C. for 1 min each.
Dermal fibroblast, CG1639 cells, were exposed to Hepasim compounds by two different concentrations for 72 hrs. Then, RNA was extracted and subsequent real-time quantitative PCR Collagen-1, TGF-β1, α-SMA and TIMP-1 mRNA were measured.

Row | Structure (SMILES) | Catalase gene expression in liver [1] | CuZnSOD gene expression in liver [1] | Glutathione peroxidase gene expression in liver [1] | MnSOD gene expression in liver [1] | NADPH oxidase gene expression in liver [1] | All-4 profibrogenic gene expression (Collagen-1, TGF-β1, α-SMA, TIMP-1) [2] | dose dependence of profibrogenic gene down-regulation [2]
1 | CC(C)=CCOc1ccc(C2=C(CC(C)C)C(=O)NC2=O)cc1 [Compound B, 3-isobutyl-4-[4-(3-methyl-2-butenyloxy)phenyl]-1H-pyrrol-2,5-dione] | up-regulated significantly | up-regulated significantly | up-regulated significantly | up-regulated significantly | down-regulated significantly | down-regulated significantly | dose-dependent effect
2 | CC(C)=CCOc1ccc(C2=C(CC(C)C)C(=O)N(O)C2=O)cc1 [Compound C, 3-isobutyl-4-[4-(3-methyl-2-butenyloxy)phenyl]-1H-pyrrol-1-ol-2,5-dione] | up-regulated significantly | up-regulated significantly | up-regulated significantly | up-regulated significantly | down-regulated significantly | down-regulated significantly | dose-dependent effect
